The source of these data is BindingDB's records for PubMed 30125720 (Southern Medical University, 2018).

pIC50: −log10 of the molar value.

Broadly, the pIC50 is the IC50 on a negative log10 scale, so that one unit is a factor of ten. Read a high pIC50 as a small IC50.

The nature of this assay: Inhibition of TGF-beta (unknown origin).
The compound `O=c1[nH]cc(-c2cccc(CO)c2)cc1-c1nc2cc(N3CCNCC3)ccc2[nH]1` showed a pIC50 of 6.01.
The result for `CCc1cnn(-c2cccc(C)n2)c1-c1cc2cnccc2s1` [US9090625, 4] reads 8.37; that for `CC(=O)Nc1cc(Nc2nc(-c3ccc(F)c(C)n3)nc3[nH]cnc23)ccn1`, 9.47.
